Activity calls are given as the source filed them. The rule behind the calls is not given here.
Tests used:
[1] = tested on: UACC-257; experiment: Growth inhibition of human UACC257 cells incubated for 48 hrs by sulforhodamine B assay; format: functional; conditions: UACC-257, 48 h
[2] = tested on: SNB-75; experiment: Growth inhibition of human SNB75 cells incubated for 48 hrs by sulforhodamine B assay; format: functional; conditions: SNB-75, 48 h
[3] = tested on: HCC 2998; experiment: Growth inhibition of human HCC2998 cells incubated for 48 hrs by sulforhodamine B assay; format: functional; conditions: HCC 2998, 48 h
[4] = tested on: DU-145; experiment: cells; conditions: Homo sapiens, DU-145, 72 h
[5] = tested on: A549; experiment: Growth inhibition of human A549/ATCC cells incubated for 48 hrs by sulforhodamine B assay; format: functional; conditions: A549, 48 h
[6] = tested on: 786-0; experiment: Growth inhibition of human 786-0 cells incubated for 48 hrs by sulforhodamine B assay; format: functional; conditions: 786-0, 48 h
[7] = tested on: MCF7; experiment: cells; conditions: Homo sapiens, MCF7, 72 h
[8] = tested on: NCI-H23; experiment: Growth inhibition of human NCI-H23 cells incubated for 48 hrs by sulforhodamine B assay; format: functional; conditions: NCI-H23, 48 h
[9] = tested on: A498; experiment: Growth inhibition of human A498 cells incubated for 48 hrs by sulforhodamine B assay; format: functional; conditions: A498, 48 h
[10] = tested on: Hs-578T; experiment: Growth inhibition of human Hs 578T cells incubated for 48 hrs by sulforhodamine B assay; format: functional
[11] = tested on: Panel NCI-60 (60 carcinoma cell lines); experiment: Growth inhibition of human NCI60 incubated for 48 hrs by sulforhodamine B assay; format: functional
[12] = tested on: NCI/ADR-RES; experiment: Growth inhibition of human NCI/ADR-RES cells incubated for 48 hrs by sulforhodamine B assay; format: functional
[13] = tested on: MCF7; experiment: Growth inhibition of human MCF7 cells incubated for 48 hrs by sulforhodamine B assay; format: functional; conditions: MCF7, 48 h
[14] = tested on: CCRF-CEM; experiment: Growth inhibition of human CCRF-CEM cells incubated for 48 hrs by sulforhodamine B assay; format: functional
[15] = tested on: COLO 205; experiment: Growth inhibition of human COLO205 cells incubated for 48 hrs by sulforhodamine B assay; format: functional; conditions: COLO 205, 48 h
[16] = tested on: MDA-MB-435; experiment: Growth inhibition of human MDA-MB-435 cells incubated for 48 hrs by sulforhodamine B assay; format: functional; conditions: MDA-MB-435, 48 h
[17] = tested on: SF-295; experiment: Growth inhibition of human SF295 cells incubated for 48 hrs by sulforhodamine B assay; format: functional; conditions: SF-295, 48 h
[18] = molecular target: T1, DNA topoisomerase 1 (Homo sapiens) (UniProt P11387); experiment: Inhibition of recombinant TOP1 (unknown origin) using 3'-[32P]-labeled 117 bp DNA oligonucleotide assessed as […] TOP1-mediated DNA cleavage incubated for 20 mins by PAGE analysis relative to 1 uM CPT
T1 sequence (whole entry): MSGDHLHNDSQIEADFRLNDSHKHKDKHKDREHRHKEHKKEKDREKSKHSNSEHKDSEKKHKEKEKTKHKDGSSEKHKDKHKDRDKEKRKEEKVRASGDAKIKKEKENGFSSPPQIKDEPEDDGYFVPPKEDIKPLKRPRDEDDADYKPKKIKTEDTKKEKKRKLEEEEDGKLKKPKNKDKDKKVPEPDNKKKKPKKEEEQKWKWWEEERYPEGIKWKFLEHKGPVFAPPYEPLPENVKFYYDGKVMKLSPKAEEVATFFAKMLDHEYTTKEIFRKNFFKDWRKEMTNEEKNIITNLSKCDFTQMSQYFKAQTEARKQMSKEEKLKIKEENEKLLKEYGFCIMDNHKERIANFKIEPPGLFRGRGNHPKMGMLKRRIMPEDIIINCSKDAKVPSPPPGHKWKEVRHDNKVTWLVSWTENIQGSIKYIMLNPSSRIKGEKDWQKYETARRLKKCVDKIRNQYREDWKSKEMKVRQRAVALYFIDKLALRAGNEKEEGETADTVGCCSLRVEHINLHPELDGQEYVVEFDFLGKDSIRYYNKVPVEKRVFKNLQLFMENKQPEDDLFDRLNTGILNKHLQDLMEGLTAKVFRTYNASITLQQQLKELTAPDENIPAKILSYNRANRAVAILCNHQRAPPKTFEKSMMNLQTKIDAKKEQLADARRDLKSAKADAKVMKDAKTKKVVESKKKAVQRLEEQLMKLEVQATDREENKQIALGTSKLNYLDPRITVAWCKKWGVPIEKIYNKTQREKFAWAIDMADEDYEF

[19] = tested on: HCT-15; experiment: Growth inhibition of human HCT15 cells incubated for 48 hrs by sulforhodamine B assay; format: functional; conditions: HCT-15, 48 h
[20] = tested on: OVCAR-8; experiment: Growth inhibition of human OVCAR8 cells incubated for 48 hrs by sulforhodamine B assay; format: functional; conditions: OVCAR-8, 48 h
[21] = tested on: SW-620; experiment: Growth inhibition of human SW620 cells incubated for 48 hrs by sulforhodamine B assay; format: functional; conditions: SW-620, 48 h
[22] = tested on: SK-OV-3; experiment: Growth inhibition of human SKOV3 cells incubated for 48 hrs by sulforhodamine B assay; format: functional; conditions: SK-OV-3, 48 h
[23] = tested on: ACHN; experiment: Growth inhibition of human ACHN cells incubated for 48 hrs by sulforhodamine B assay; format: functional
[24] = tested on: TK-10; experiment: Growth inhibition of human TK10 cells incubated for 48 hrs by sulforhodamine B assay; format: functional; conditions: TK-10, 48 h
[25] = tested on: MDA-MB-231; experiment: Growth inhibition of human MDA-MB-231 cells incubated for 48 hrs by sulforhodamine B assay; format: functional; conditions: MDA-MB-231, 48 h
[26] = tested on: MDA-MB-468; experiment: Growth inhibition of human MDA-MB-468 cells incubated for 48 hrs by sulforhodamine B assay; format: functional; conditions: MDA-MB-468, 48 h
[27] = tested on: KM12; experiment: Growth inhibition of human KM12 cells incubated for 48 hrs by sulforhodamine B assay; format: functional; conditions: KM12, 48 h
[28] = tested on: A549; experiment: cells; conditions: Homo sapiens, A549, 72 h
[29] = tested on: SN12C; experiment: Growth inhibition of human SN12C cells incubated for 48 hrs by sulforhodamine B assay; format: functional
[30] = tested on: NCI-H522; experiment: Growth inhibition of human NCI-H522 cells incubated for 48 hrs by sulforhodamine B assay; format: functional; conditions: NCI-H522, 48 h
[31] = Acute toxicity in Kunming mouse assessed as animal survival at 122.9 mg/kg, ip administrated as single dose measured for 7 days post administration; format: organism-based; conditions: in vivo
[32] = tested on: HCT-116; experiment: Growth inhibition of human HCT116 cells expressing siTOP1 incubated for 72 hrs by MTT assay; format: functional; conditions: HCT-116, 72 h
[33] = molecular target: T1, DNA topoisomerase 1 (Homo sapiens); experiment: Inhibition of TOP1 in human HCT116 cells assessed as induction of cellular TOP1cc formation at 25 uM incubated for 1 hr by chemiluminescence based assay; format: cell-based
[34] = Oral bioavailability in Sprague-Dawley rat at 5 mg/kg measured for 0.083 to 4 hrs by LC-MS/MS analysis; format: ADME, organism-based; conditions: in vivo
[35] = molecular target: T1, DNA topoisomerase 1 (Homo sapiens); experiment: Inhibition of TOP1 in human HCT116 cells assessed as induction of DNA damage by measuring increase in gammaH2AX foci at 1 uM incubated for 3 hrs by DAPI staining based immunofluorescence microscopic method; format: cell-based

SMILES | GI50 [1] [nM] | GI50 [2] [nM] | GI50 [3] [nM] | GI50 [4] [nM] | GI50 [5] [nM] | GI50 [6] [nM] | GI50 [7] [nM] | GI50 [8] [nM] | GI50 [9] [nM] | GI50 [10] [nM] | GI50 [11] [nM] | GI50 [12] [nM] | GI50 [13] [nM] | GI50 [14] [nM] | GI50 [15] [nM] | GI50 [16] [nM] | GI50 [17] [nM] | inhibition [18] [%] | GI50 [19] [nM] | GI50 [20] [nM] | also measured
COc1cc2c(=O)n(CCN)c3c4cc5c(cc4ccc3c2cc1OC)OCO5 | 1900 | 596 | 1020 | 14 | 584 | 464 | 100 | 451 | 1230 | 1960 | 525 | 1010 | 164 | 150 | 290 | 759 | 279 | 50 to 75 | 420 | 930 | GI50 [21]: 243 nM; GI50 [22]: 1240 nM; GI50 [23]: 366 nM; GI50 [24]: 1350 nM; GI50 [25]: 1280 nM; GI50 [26]: 157 nM; GI50 [27]: 1100 nM; GI50 [28]: 980 nM; GI50 [29]: 739 nM; GI50 [30]: 87.5 nM
CNCCn1c(=O)c2cc(OC)c(OC)cc2c2ccc3cc4c(cc3c21)OCO4 | 122 | 88.5 | 156 | 2 | 94.8 | 70.3 | 90 | 90.6 | 127 | 904 | 97.7 | 165 | 29.2 | 20.1 | 60.5 | 118 | 34.6 | 75 to 95 | 116 | 132 | survival at 168 h [31]: 100%; GI50 [32]: 320 nM; Activity [33]: Active; GI50 [21]: 65.8 nM; GI50 [22]: 157 nM; GI50 [23]: 85.6 nM; GI50 [24]: 316 nM; GI50 [25]: 362 nM; F [34]: 20.4%; GI50 [26]: 59.9 nM; GI50 [27]: 238 nM; GI50 [28]: 970 nM; GI50 [29]: 171 nM; GI50 [30]: 27.4 nM; Activity [35]: Active

Source: ChEMBL document CHEMBL4364246, “Synthesis and biological evaluation of 5-aminoethyl benzophenanthridone derivatives as DNA topoisomerase IB inhibitors” (Eur J Med Chem, 2019)
